Test results as given in patent publication US6569633B1, “Modulation of the sulfonylurea receptor and calcium in adipocytes for treatment of obesity/diabetes” (Artecel Science, Inc., priority 1998, dated 2003).

Experiments:
human preadipocytes = test: Intracellular Ca2+ ([Ca2+]i) response in human preadipocytes; format: cell-based
[1] = system: FAS activity in human adipocytes; test: Fatty acid synthase (FAS) activity in human adipocytes; format: cell-based; settings: for fatty acid synthase activity: control 1.93±0.24
human adipocytes = test: Intracellular Ca2+ ([Ca2+]i) by fura-2 fluorometry in isolated human adipocytes; format: cell-based
Method: FIG. 2. Glibenclamide stimulation of [Ca^2+]i in isolated human adipocyte. [Ca^2+]i in isolated human adipocytes was determined fluorometrically as previously described (4,7). Briefly, the human adipocytes isolated as described above were incubated in DMEM medium overnight for cell recovery. Prior to [Ca^2+]i measurement, adipocytes were pre-incubated in serum-free medium for 2 hrs, rinsed with HBSS solution containing the following components in mM: NaCl 138, CaCl2 1.8, MgSO4 0.8, NaH2PO4 0.9, NaHCO3 4, glucose 20, glutamine 6, HEPES 20 and BSA 1%. Cells were then loaded with fura-2 acetoxymethyl ester (10 μM) in the same buffer for 45 min at 37° C. in the dark with continuous shaking. To remove extracellular dye, cells were rinsed with HBSS for 3 times and resuspended in this solution at a concentration of 2×10^5 cells/ml. [Ca^2+]i was measured using dual excitation (340 and 380 nm) and single emission (510 nm) fluorometry. Following the establishment of stable baseline, the response to glibenclamide (10 and 20 μM) was determined. Digitonin (25 μM) and Tris/EGTA (100 mM) were used to measure maximal and minimal fluorescence to calibrate the signals, and final [Ca^2+]i was then calculated by the equation of Grynkiewicz et al. (17). […] Glibenclamide (Glib) was added at time designated by the arrow. B. The dose-responsive effect of glibenclamide on [Ca^2+]i in human adipocytes. Glibenclamide was added at 10 and 20 µM at the indicated times. *p<0.05 vs. Control, **p<0.05 vs. 10 μM glibenclamide.
The functionality of the SUR1 receptor was determined with respect to calcium mobilization and small molecule effects. [Ca^2+]i response was measured fluorometrically in isolated human adipocytes using a standard method (2,16). Briefly, isolated human adipocytes were incubated in DMEM or any other suitable medium such as Ham's F-10, Modified Eagle's media plus 5-10% fetal calf serum overnight for cell recovery. Prior to [Ca^2+]i measurement, adipocytes were pre-incubated in serum-free medium for 2 hrs, rinsed with HBSS solution containing the following components in mM: NaCl 138, CaCl2 1.8, MgSO4 0.8, NaH2PO4 0.9, NaHCO3 4, glucose 20, glutamine 6, HEPES 20 and BSA 1%. Cells were then loaded with fura-2 acetoxymethyl ester (10 μM) in the same buffer for 30-60 min at 37° C. in dark with continuous shaking. To remove extracellular dye, cells were rinsed with HBSS for three times and resuspended in this solution at a concentration of 1-10×10^5 cells/ml. [Ca^2+]i was measured using dual excitation (340 and 380 nm) and single emission (510 nm) fluorometry. Following the establishment of stable baseline, the response to a SUR agonist such as glibenclamide (1-20 μM) can be determined. Digitonin (25 μM) and Tris/EGTA (100 mM) were used to measure maximal and minimal fluorescence to calibrate the signals, and final [Ca^2+]i was then calculated by a known method such as described in Grynkiewicz et al (17).
Correlation of lipolysis with flux of intracellular calcium ([Ca^2+]i) concentration is then performed. [Ca^2+]i is measured in primary adipocytes. For primary adipocytes, 3 ml of cells are resuspended in 6 ml of HBSS and fura-2/AM was loaded for 80 min at 37° C. Extracellular fura-2/AM is washed three times with HBSS by centrifugation. [Ca^2+]i levels are then measured fluorometrically in suspensions using dual excitation (340 and 380 nm)/single emission (510 nm) fluorometry and [Ca^2+]i is calculated by the computer in the fluorometer. As a control, after loading fura-2/AM cells are pretreated with nitrendipine (RBI, Natick, Mass.) (30 μM, final concentration) for 10 min at 37° C.

rat adipocytes = settings: read-out: KD of glibenclamide binding; cited from earlier work

Compound: COc1ccc(Cl)cc1C(=O)NCCc1ccc(S(=O)(=O)NC(=O)NC2CCCCC2)cc1 [glibenclamide]
- [Ca2+]i response (human preadipocytes): did not exhibit any [Ca^2+]i response
- fatty acid synthase activity ([1]; 2 μM glibenclamide): 7.90±0.4 nmol/min/mg protein
- increase in adipocyte FAS activity ([1]; 10 μM glibenclamide, 48 hr): 67%
- FAS activity ([1]; 10 μM glibenclamide, 48 hr, control 0.692±0.052): 1.154±0.010 NADPH nM/min/mg protein
- fatty acid synthase activity ([1]; 10 μM glibenclamide): 12.8 ± 0.6 nmol/min/mg
- increased FAS activity from basal levels ([1]; SUR agonist such as glibenclamide, general description): 50%-500%
- [Ca2+]i response (human adipocytes; 20 µM glibenclamide (FIG. 2A)): increase in intracellular calcium
- [Ca2+]i response (human adipocytes; 1-20 μM, dose-dependent manner): sustained increases
- EC50 (human adipocytes; Adipocyte, human adipocytes, read-out: EC50 for increase in intracellular free calcium): ~1000 nM
- maximum response of intracellular free calcium (human adipocytes; graded doses, over a baseline of 190 nM): 388 ± 72 nM
- Kd (rat adipocytes): 1000 to 3000 nM
